Source: US20250345276A1, “O/W-EMULSIONS COMPRISING SEMIFLUORINATED ALKANES” (NOVALIQ GMBH, priority 2011, published 2025)

Tests used:
[1] = hydroxyl group; cited from earlier work
[2] = system: Staphylococcus aureus (ATCC 6538); experiment: antimicrobial preservative effectiveness test in analogy to USP 32 <51>; type: cell-based; settings: S. aureus; for cfu/mL 0 h: 0 h after inoculation; for cfu/mL 0 h / cfu/mL 24 h / cfu/mL 48 h: approx. 22.5° C.
Description: (§1) An antimicrobial preservative effectiveness test in analogy to that of USP 32 <51>was carried out. Sample vials prepared according to Examples 1, 3 and 4 were inoculated with Escherichia coli, Pseudomonas aeruginosa, Staphylococcus aureus, Candida albicans and Aspergillus niger and incubated at approx. 22.5° C. Commercially obtained samples of Disoprivan® were tested as comparators.
(§2) To determine whether the observed inhibition of microbial growth in the emulsions of the invention is an effect of the semifluorinated alkanes or the propofol, the test was repeated with a placebo emulsion containing no propofol, but only F6H8 in a higher concentration (40 wt.-%) and S75 in dextrose solution. Also tested were pure solutions of F6H8 and F4H5.

[3] = system: Candida albicans (ATCC 10231); experiment: as above; type: cell-based; settings: C. albicans; for cfu/mL 0 h: 0 h after inoculation; for cfu/mL 0 h / cfu/mL 24 h / cfu/mL 48 h: approx. 22.5° C.
Description: as §1, §2

[4] = system: Pseudomonas aeruginosa (ATCC 9027); experiment: as above; type: cell-based; settings: P. aeruginosa; for cfu/mL 0 h: 0 h after inoculation; for cfu/mL 0 h / cfu/mL 24 h / cfu/mL 48 h: approx. 22.5° C.
Description: as §1, §2

[5] = miscibility of propofol with semifluorinated alkanes; type: physicochemical; settings: over a wide temperature range
Source text: By virtue of the high solubility of propofol in semifluorinated alkanes, it is now possible to provide injectable propofol formulations having a high strength (or concentration of propofol), and thus require only a low volume of administration. This will also bring about an improved tolerability, since a lower administration volume inherently means a lower intake of excipients (such as emulsifiers).

[6] = system: Escherichia coli (ATCC 8739); experiment: antimicrobial preservative effectiveness test in analogy to USP 32 <51>; type: cell-based; settings: E. coli; for cfu/mL 0 h: 0 h after inoculation; for cfu/mL 0 h / cfu/mL 24 h / cfu/mL 48 h: approx. 22.5° C.
Description: (§3) An antimicrobial preservative effectiveness test in analogy to that of USP 32 <51>was carried out. Sample vials prepared according to Examples 1, 3 and 4 were inoculated with Escherichia coli, Pseudomonas aeruginosa, Staphylococcus aureus, Candida albicans and Aspergillus niger and incubated at approx. 22.5° C. Commercially obtained samples of Disoprivan® were tested as comparators. […]

[7] = system: Aspergillus niger (ATCC 16404); experiment: as above; type: cell-based; settings: A. niger; for cfu/mL 0 h: 0 h after inoculation; for cfu/mL 0 h / cfu/mL 24 h / cfu/mL 48 h: approx. 22.5° C.
Description: as §3

Question: Which pKa [1] does the source give for `CC(C)c1cccc(C(C)C)c1O` [propofol, 2,6-diisopropylphenol] here?
Answer: 11

Question: For `CCCCCCCCC(F)(F)C(F)(F)C(F)(F)C(F)(F)C(F)(F)C(F)(F)F` [Example F6H8], which “cfu/mL 0 h” value [2] is on record?
Answer: 2 900 cfu/mL

Question: What about the “Change in log steps 24 h” value [2] of the same molecule?
Answer: ≤-1.4 log steps

Question: And the “cfu/mL 24 h” value [2]?
Answer: <100 cfu/mL

Question: What about the “Change in log steps 48 h” value [2] of the same molecule?
Answer: ≤-1.4 log steps

Question: And the “cfu/mL 48 h” value [2]?
Answer: <100 cfu/mL

Question: What about the “cfu/mL 0 h” value [3] of the same molecule?
Answer: 1 500 cfu/mL

Question: What about the “Change in log steps 24 h” value [3] of the same molecule?
Answer: ≤-1.2 log steps

Question: And the “cfu/mL 24 h” value [3]?
Answer: <100 cfu/mL

Question: And the “Change in log steps 48 h” value [3]?
Answer: ≤-1.1 log steps

Question: And the “cfu/mL 48 h” value [3]?
Answer: <100 cfu/mL

Question: And the “cfu/mL 0 h” value [4]?
Answer: 1 600 cfu/mL

Question: What about the “Change in log steps 24 h” value [4] of the same molecule?
Answer: ≤-1.2 log steps

Question: What about the “cfu/mL 24 h” value [4] of the same molecule?
Answer: <100 cfu/mL

Question: And the “Change in log steps 48 h” value [4]?
Answer: ≤-1.2 log steps

Question: What about the “cfu/mL 48 h” value [4] of the same molecule?
Answer: <100 cfu/mL

Question: What about the “miscibility of propofol with the semifluorinated alkane” value (shortened to “miscibility of propofol”) [5] of the same molecule?
Answer: fully miscible

Question: What about the “cfu/mL 0 h” value [6] of the same molecule?
Answer: 1 600 cfu/mL

Question: What about the “Change in log steps 24 h” value [6] of the same molecule?
Answer: ≤-1.2 log steps

Question: What about the “cfu/mL 24 h” value [6] of the same molecule?
Answer: <100 cfu/mL

Question: What about the “Change in log steps 48 h” value [6] of the same molecule?
Answer: ≤-1.2 log steps

Question: What about the “cfu/mL 48 h” value [6] of the same molecule?
Answer: <100 cfu/mL

Question: And the “cfu/mL 0 h” value [7]?
Answer: 1 500 cfu/mL

Question: And the “Change in log steps 24 h” value [7]?
Answer: ≤-1.2 log steps

Question: What about the “cfu/mL 24 h” value [7] of the same molecule?
Answer: <100 cfu/mL

Question: What about the “Change in log steps 48 h” value [7] of the same molecule?
Answer: ≤-1.2 log steps

Question: And the “cfu/mL 48 h” value [7]?
Answer: <100 cfu/mL

Question: And the “Change in log steps 6 d” value [7]?
Answer: ≤-1.2 log steps

Question: And the “cfu/mL 6 d” value [7]?
Answer: <100 cfu/mL

Question: Which “miscibility of propofol” value [5] does the source give for `CCCCCCC(F)(F)C(F)(F)C(F)(F)C(F)(F)F` [Example F4H6] here?
Answer: fully miscible

Question: For `CCCCCC(F)(F)C(F)(F)C(F)(F)C(F)(F)F` [Example F4H5], which “cfu/mL 0 h” value [2] is on record?
Answer: 2 900 cfu/mL

Question: What about the “Change in log steps 24 h” value [2] of the same molecule?
Answer: ≤-1.4 log steps

Question: What about the “cfu/mL 24 h” value [2] of the same molecule?
Answer: <100 cfu/mL

Question: And the “Change in log steps 48 h” value [2]?
Answer: ≤-1.4 log steps

Question: What about the “cfu/mL 48 h” value [2] of the same molecule?
Answer: <100 cfu/mL

Question: What about the “cfu/mL 0 h” value [3] of the same molecule?
Answer: 1 500 cfu/mL

Question: What about the “Change in log steps 24 h” value [3] of the same molecule?
Answer: ≤-1.2 log steps

Question: And the “cfu/mL 24 h” value [3]?
Answer: <100 cfu/mL

Question: And the “Change in log steps 48 h” value [3]?
Answer: ≤-1.1 log steps

Question: What about the “cfu/mL 48 h” value [3] of the same molecule?
Answer: <100 cfu/mL

Question: What about the “cfu/mL 0 h” value [4] of the same molecule?
Answer: 1 600 cfu/mL

Question: What about the “Change in log steps 24 h” value [4] of the same molecule?
Answer: ≤-1.2 log steps

Question: And the “cfu/mL 24 h” value [4]?
Answer: <100 cfu/mL

Question: And the “Change in log steps 48 h” value [4]?
Answer: ≤-1.2 log steps

Question: What about the “cfu/mL 48 h” value [4] of the same molecule?
Answer: <100 cfu/mL

Question: And the “miscibility of propofol” value [5]?
Answer: fully miscible

Question: What about the “cfu/mL 0 h” value [6] of the same molecule?
Answer: 1 600 cfu/mL

Question: And the “Change in log steps 24 h” value [6]?
Answer: ≤-1.2 log steps

Question: What about the “cfu/mL 24 h” value [6] of the same molecule?
Answer: <100 cfu/mL

Question: And the “Change in log steps 48 h” value [6]?
Answer: ≤-1.2 log steps

Question: What about the “cfu/mL 48 h” value [6] of the same molecule?
Answer: <100 cfu/mL

Question: What about the “cfu/mL 0 h” value [7] of the same molecule?
Answer: 3 000 cfu/mL

Question: What about the “Change in log steps 24 h” value [7] of the same molecule?
Answer: ≤-1.4 log steps

Question: And the “cfu/mL 24 h” value [7]?
Answer: <100 cfu/mL

Question: And the “Change in log steps 48 h” value [7]?
Answer: ≤-1.2 log steps

Question: What about the “cfu/mL 48 h” value [7] of the same molecule?
Answer: <100 cfu/mL

Question: And the “Change in log steps 6 d” value [7]?
Answer: ≤-1.2 log steps

Question: And the “cfu/mL 6 d” value [7]?
Answer: <100 cfu/mL
